{"source": "patent US10501516B2", "about": "“Peptide compound” (TAKEDA PHARMACEUTICAL COMPANY LIMITED, priority 2016, dated 2019)", "key": {"male C57BL/6J mouse": {"system": "male C57BL/6J mouse", "experiment": "Evaluation of feeding suppressive action in mice", "assay_type": "in vivo", "conditions": "30 nmol/kg s.c. once a day for 3 days; 3-days cumulative food consumption vs solvent control", "summary_of_the_method": "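Male C57BL/6J mice, 8-9 weeks, ad libitum fed, given compound (30 or 100 nmol/2 mL in 10% DMSO saline) s.c. at 2 mL/kg once daily for 3 days. Cumulative 3-day food consumption measured by weighing; suppression rate (%) calculated relative to vehicle controls.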"}, "Male DIO C57BL/6J mice": {"system": "Male DIO C57BL/6J mice", "experiment": "Repeated dosing study in diet-induced obese (DIO) mice", "assay_type": "in vivo, mouse", "conditions": "for ALT / AST / Insulin / TC / TG: plasma, mean ± SD", "protocol": "Male DIO C57BL/6J mice (40 weeks old) were divided into the groups based on the data of body weight, food intake, and plasma parameters. Vehicle or the compounds (P41) of Example 41 was subcutaneously administered once a day for 4 weeks. Body weight and food intake were monitored during the study. Compounds were dissolved in 10% DMSO/saline. After the study, blood was collected and plasma parameters were measured. At day 29, body composition was measured by EchoMRI (Hitachi Aloka Medical, Ltd., Japan) and the animals were sacrificed. For hematoxylin and eosin (HE) staining, livers were dissected from DIO mice after 4 weeks drug administration described in the above body-weight studies section. Livers were fixed in 4% paraformaldehyde, embedded in paraffin, sectioned, and stained with HE. After processing, the sections were mounted and then examined via light microscopy (NanoZoomer, Hamamatsu Photonics).\nTotal RNA was isolated from the liver using QIAzol reagent (QIAGEN Japan, Tokyo, Japan) and cDNA was synthesized using High-Capacity cDNA Reverse Transcription Kit (Applied Biosystems, CA, USA). Quantitative RT-PCR was performed using the ABI Prism 7900 Sequence Detection System with EXPRESS qPCR Super Mix (Thermo Fisher Scientific Inc. MA. USA). Mixtures of primers and probes (Applied Biosystems) were used for the detection of mRNA (Table 4). The expression levels were normalized to those of beta-actin and Peptidyl isomerase A.\nPlasma glucose, triglyceride (TG), total cholesterol (TC), aspartate aminotransferase (AST), and alanine aminotransferase (ALT) were analyzed by Autoanalyzer 7180 (Hitachi High-Technologies Corporation, Japan). Blood glycated hemoglobin (GHb) was measured with the automated GHb analyzers (HLC-723G8, Tosoh, Tokyo, Japan). Liver triglyceride content was measured as follows: a piece of tissue was homogenized in saline and lipid was extracted by the addition of hexane:isopropanol (3:2) solution. The lipid phase was collected, dried and then dissolved in isopropanol. The concentration of triglyceride was measured by Triglyceride E-test (Wako Pure Chemical Industries, Ltd, Japan) and triglyceride content per g liver was calculated. Plasma insulin was measured with ELISA Assay kit (Shibayagi Co. Ltd., Japan)."}, "Male C57BL/6J mice": {"system": "Male C57BL/6J mice", "experiment": "Conditioned taste aversion (CTA) test", "assay_type": "in vivo, mouse", "conditions": "3 nmol/kg s.c.", "protocol": "Male C57BL/6J (9 weeks old) mice were habituated to time-restricted bottled water supply (2-3 hours/day) and subcutaneous injection of saline for 1 week. Mice were divided into the groups based on the data of body weight and water intake. CTA test was performed according to the following protocol. On day 1 for the first conditioning, mice were given 0.1% sodium saccharin solution to drink for 3 hours. Ten-minutes after supplying the saccharin solution, vehicles, liraglutides and P41 were administered subcutaneously. […] On day 2, mice were given tap water for 3 hours and subcutaneous injection of saline after water supply. On day 3, the second conditioning was conducted as the same procedure used on day 1. On day 4, mice were given tap water for 3 hours without subcutaneous injection. On day 5, both tap water and saccharin solution were supplied to mice for 3 hours without subcutaneous injection and the intake of each fluid was measured. Saccharin preference ratio (%) was calculated according to the following equation: {(amount of saccharin intake)/(amount of saccharin intake+amount of water intake)}×100."}, "cynomolgus monkeys": {"system": "cynomolgus monkeys", "experiment": "Food intake and emesis study in cynomolgus monkeys", "assay_type": "in vivo, cynomolgus monkey", "protocol": "One male and one female cynomolgus monkeys (age: 4 years old, body weight: 3.9 kg in male, 2.7 kg in female) were used. The monkeys were housed in individual cages with a 12 hr:12 hr light-dark schedule at 22-27° C., and given 100 g of pellet diet (Oriental Yeast Co. Ltd) once daily. The diet was supplied after completion of the clinical observation at 8 hour post dose on the days of dosing. On other days during the experimental period, the diet was supplied each day after the completion of examinations and the remaining diet was withdrawn on the following morning. P41 was dissolved in 0.5 w/v % mannitol solution. The compound at 0.05 mg/kg was subcutaneously administered at day 1 and then at 0.15 mg/kg at day 4. Body weight was measured once during the pre-dosing period and on day 1, 4, 8, 11 and 15. Food intake was measured every day during the experimental period."}, "[1]": {"conditions": "3 nmol/kg s.c. once a day for 4 weeks"}, "[2]": {"conditions": "10 nmol/kg s.c. once a day for 4 weeks"}, "[3]": {"conditions": "30 nmol/kg s.c. once a day for 4 weeks"}, "[4]": {"conditions": "3, 10 and 30 nmol/kg s.c. once a day for 4 weeks, dose-dependent"}, "[5]": {"conditions": "quantitative RT-PCR, liver, 4 weeks"}}, "note": "Square brackets hold non-standard residues; d marks the D form. Side chains are listed from the residue outwards. Peptide text beside a SMILES is read from it. * marks the point of attachment. NMeY = CN[C@@H](Cc1ccc(O)cc1)C(=O)O; Palmitoyl = CCCCCCCCCCCCCCCC(=O)*; αMeF = C[C@](N)(Cc1ccccc1)C(=O)O; Iva = CC[C@](C)(N)C(=O)O; Aib = CC(C)(N)C(=O)O", "data": [{"smiles": "CCCCCCCCCCCCCCCC(=O)NCC(=O)NCC(=O)NCC(=O)NCC(=O)NCCCC[C@H](NC(=O)[C@H](CC(=O)O)NC(=O)[C@H](CO)NC(=O)[C@@H](NC(=O)[C@](C)(Cc1ccccc1)NC(=O)[C@@H](NC(=O)CNC(=O)[C@H](CCC(=O)O)NC(=O)C(C)(C)NC(=O)[C@H](Cc1ccc(O)cc1)NC)[C@@H](C)O)[C@@H](C)O)C(=O)N[C@@H](CO)C(=O)N[C@H](C(=O)NC(C)(C)C(=O)N[C@@H](CC(C)C)C(=O)N[C@@H](CCC(=O)O)C(=O)N[C@@H](CCCCN)C(=O)N[C@@H](CCC(N)=O)C(=O)N[C@@H](CCCNC(=N)N)C(=O)N[C@@H](CCC(N)=O)C(=O)N[C@@](C)(CC)C(=O)N[C@@H](CCC(=O)O)C(=O)N[C@@H](Cc1ccccc1)C(=O)N[C@H](C(=O)N[C@@H](CCCNC(=N)N)C(=O)N[C@@H](Cc1c[nH]cn1)C(=O)N[C@@H](CC(C)C)C(=O)N[C@@H](CC(C)C)C(=O)N[C@@H](CC(N)=O)C(=O)N[C@@H](CCCCN)C(=O)NC(C)(C)C(=O)N[C@H](C(=O)N[C@@H](CCCNC(=N)N)C(=O)N[C@@H](CCC(N)=O)C(=O)N[C@@H](CCCNC(=N)N)C(=O)N[C@@H](Cc1ccc(O)cc1)C(N)=O)[C@@H](C)O)C(C)C)[C@@H](C)CC", "note": "[Example 41] (H-[NMeY][Aib]EGT[αMeF]TSDK([Gly-Gly-Gly-Gly-Palmitoyl])SI[Aib]LEKQRQ[Iva]EFVRHLLNK[Aib]TRQRY-NH2)", "values": [{"measurement": "Rate of feeding suppression (%)", "setting": "male C57BL/6J mouse", "result": "−52.1", "unit": "%"}, {"measurement": "decrease in body weight compared with vehicle group", "setting": "Male DIO C57BL/6J mice; [1]", "result": 14.6, "unit": "%"}, {"measurement": "decrease in body weight compared with vehicle group", "setting": "Male DIO C57BL/6J mice; [2]", "result": 30.0, "unit": "%"}, {"measurement": "decrease in body weight compared with vehicle group", "setting": "Male DIO C57BL/6J mice; [3]", "result": 37.1, "unit": "%"}, {"measurement": "lean mass (EchoMRI)", "setting": "Male DIO C57BL/6J mice; 3, 10 and 30 nmol/kg s.c. once a day for 4 weeks", "result": "subtle decrease"}, {"measurement": "fat mass (EchoMRI)", "setting": "Male DIO C57BL/6J mice; [4]", "result": "drastic decrease"}, {"measurement": "inguinal, mesenteric and epididymal fat pad weight", "setting": "Male DIO C57BL/6J mice; [4]", "result": "significantly decreased"}, {"measurement": "liver TG content", "setting": "Male DIO C57BL/6J mice; [4]", "result": "drastically decreased"}, {"measurement": "liver weight", "setting": "Male DIO C57BL/6J mice; [4]", "result": "drastically decreased"}, {"measurement": "ALT", "setting": "Male DIO C57BL/6J mice; [1]", "result": "94.2 ± 32.3", "unit": "U/L"}, {"measurement": "AST", "setting": "Male DIO C57BL/6J mice; [1]", "result": "170.0 ± 37.2", "unit": "U/L"}, {"measurement": "Insulin", "setting": "Male DIO C57BL/6J mice; [1]", "result": "4.9 ± 2.9", "unit": "ng/mL"}, {"measurement": "TC", "setting": "Male DIO C57BL/6J mice; [1]", "result": "253.6 ± 11.9", "unit": "mg/dL"}, {"measurement": "TG", "setting": "Male DIO C57BL/6J mice; [1]", "result": "50.5 ± 16.2", "unit": "mg/dL"}, {"measurement": "ALT", "setting": "Male DIO C57BL/6J mice; [2]", "result": "35.6 ± 9.7", "unit": "U/L"}, {"measurement": "AST", "setting": "Male DIO C57BL/6J mice; [2]", "result": "88.8 ± 11.7", "unit": "U/L"}, {"measurement": "Insulin", "setting": "Male DIO C57BL/6J mice; [2]", "result": "3.7 ± 2.7", "unit": "ng/mL"}, {"measurement": "TC", "setting": "Male DIO C57BL/6J mice; [2]", "result": "189.5 ± 22.1", "unit": "mg/dL"}, {"measurement": "TG", "setting": "Male DIO C57BL/6J mice; [2]", "result": "62.2 ± 16.1", "unit": "mg/dL"}, {"measurement": "ALT", "setting": "Male DIO C57BL/6J mice; [3]", "result": "37.5 ± 7.7", "unit": "U/L"}, {"measurement": "AST", "setting": "Male DIO C57BL/6J mice; [3]", "result": "90.2 ± 10.3", "unit": "U/L"}, {"measurement": "Insulin", "setting": "Male DIO C57BL/6J mice; [3]", "result": "5.2 ± 2.1", "unit": "ng/mL"}, {"measurement": "TC", "setting": "Male DIO C57BL/6J mice; [3]", "result": "173.2 ± 16.4", "unit": "mg/dL"}, {"measurement": "TG", "setting": "Male DIO C57BL/6J mice; [3]", "result": "50.2 ± 6.6", "unit": "mg/dL"}, {"measurement": "hepatic gene expression of inhibitor of fibrosis (MMP2)", "setting": "Male DIO C57BL/6J mice; [5]", "result": "tended to increase"}, {"measurement": "hepatic gene expression related to fibrosis (Timp1, Col1α) and inflammation (CCl2)", "setting": "Male DIO C57BL/6J mice; [5]", "result": "tended to decrease"}, {"measurement": "hepatic lipid droplet, HE staining of liver slices", "setting": "Male DIO C57BL/6J mice; s.c. once a day for 4 weeks", "result": "Reduction of hepatic lipid droplet"}, {"measurement": "induction of conditioned taste aversion (emetic effects)", "setting": "Male C57BL/6J mice", "result": "did not induce CTA"}, {"measurement": "Saccharin preference ratio (%)", "setting": "Male C57BL/6J mice; two conditionings, mean ± SD", "result": "76.8 ± 9.5", "unit": "%"}, {"measurement": "food consumption", "setting": "cynomolgus monkeys; 0.05 and 0.15 mg/kg (ca. 10 and 30 nmol/kg) s.c., one male and one female", "result": "almost completely abolished food consumption"}, {"measurement": "duration of inhibitory effect of food consumption", "setting": "cynomolgus monkeys; 0.05 and 0.15 mg/kg s.c.", "result": "≥ 2", "unit": "days"}, {"measurement": "vomiting", "setting": "cynomolgus monkeys; 0.05 and 0.15 mg/kg s.c., throughout the experimental period", "result": "did not induce vomiting"}]}]}
